Experimental data reported in patent US5462954A, “Substituted phenyl phenol leukotriene antagonists” (Eli Lilly and Company, priority 1994, dated 1995).

Molecular target: binding of tritiated LTB4 to guinea pig lung membranes (Cavia porcellus, UniProt H0VYV8)
Assay: biochemical
Details: read-out: pKi (mean -log Ki) (converted)
Method: The effectiveness of compounds of Formula I to inhibit the binding of tritiated LTB4 to guinea pig lung membranes was determined as follows.
The binding reaction was terminated by the addition of 1 mL ice cold wash buffer (25 mM Tris-HCl, pH 7.5) followed immediately by vacuum filtration over Whatman GF/C glass fiber filters using a Brandel (Gaithersburg, Md.) 48 place harvester. The filters were washed three times with 1 mL of wash buffer. Retained radioactivity was determined by liquid scintillation counting at 50% counting efficiency using Ready Protein Plus cocktail (Beckman, Fullerton, Calif.). Nondisplaceable binding was determined in the presence of 1 μM LTB4 and was usually less than 10% of total binding. […] The data reported below is the mean -log Ki, otherwise known as the pKi, for n experiments.

Chain of binding of tritiated LTB4 to guinea pig lung membranes (H0VYV8 1-348): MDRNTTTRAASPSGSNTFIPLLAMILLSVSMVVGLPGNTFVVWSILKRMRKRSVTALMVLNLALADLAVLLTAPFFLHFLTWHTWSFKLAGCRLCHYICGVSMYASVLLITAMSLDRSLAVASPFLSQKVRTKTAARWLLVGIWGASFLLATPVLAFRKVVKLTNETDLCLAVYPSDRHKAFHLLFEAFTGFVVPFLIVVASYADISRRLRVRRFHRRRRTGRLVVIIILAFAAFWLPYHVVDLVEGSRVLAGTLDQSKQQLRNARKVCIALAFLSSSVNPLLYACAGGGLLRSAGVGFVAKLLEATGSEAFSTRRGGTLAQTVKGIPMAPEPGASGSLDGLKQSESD

Compound	Ki [nM]
CCc1cc(-c2ccc(F)cc2)c(O)cc1OCC/C=C/c1ccccc1CCC(=O)O [9 (trans), 3-(2-(4-(2-Ethyl-4-(4-fluorophenyl)-5-hydroxyphenoxy)-(1-butenyl))phenyl)propionic acid]	3.89
CCc1cc(-c2ccc(F)cc2)c(O)cc1OCCCOc1cccc(OC)c1CCC(=O)O [Example 6, 3-(2-(3-(2-Ethyl-4-(4-fluorophenyl)-5-hydroxyphenoxy)propoxy)-6-methoxyphenyl)propionic acid]	5.01
CCc1cc(-c2ccc(F)cc2)c(O)cc1OCCCOc1cccc(OCCCCc2nnn[nH]2)c1CCC(=O)O [Example 7, 3-(2-(3-(2-Ethyl-4-(4-fluorophenyl)-5-hydroxyphenoxy)propoxy)-6-(4-(1H-tetrazol-5-yl)butyloxy)phenyl)propionic acid]	1.35
CCc1cc(-c2ccc(F)cc2)c(O)cc1OCCCCc1cccc(OC)c1CCC(=O)O [Example 11, 3-(2-(4-(2-Ethyl-4-(4-fluorophenyl)-5-hydroxyphenoxy)butyl)-6-methoxyphenyl)propionic acid]	21.4
CCCCOc1cccc(OCCCOc2cc(O)c(-c3ccc(F)cc3)cc2CC)c1CCC(=O)O [Example 14, 3-(2-(3-(2-Ethyl-4-(4-fluorophenyl)-5-hydroxyphenoxy)propoxy)-6-(4-butyloxy)phenyl)propionic acid]	30.2
O=C(O)CCCCOc1cccc(OCCCOc2cc(O)c(-c3ccc(F)cc3)cc2-c2ccc(F)cc2)c1CCC(=O)O [Example 16, 3-(2-(3-(2,4-Di(4-fluorophenyl)-5-hydroxyphenoxy)propoxy)-6-(4-carboxybutoxy)phenyl)propionic acid]	17.4
CCCCCC(C)(CCCCCOc1cc(O)c(-c2ccc(F)cc2)cc1CC)c1nnn[nH]1 (stereo not drawn) [Example 17, 6-Methyl-6-(1H-tetrazol-5-yl)-11-(2-ethyl-4-(4-fluorophenyl)-5-hydroxyphenoxy)undecane]	53.7
CCc1cc(-c2ccc(F)cc2)c(O)cc1OCCCOc1ccccc1CCC(=O)N(C)C [Example 18, N,N-Dimethyl-3-(2-(3-(2-ethyl-4-(4-fluorophenyl)-5-hydroxyphenoxy)propoxy)phenyl)propionamide]	245
CCc1cc(-c2ccc(F)cc2)c(O)cc1OCCCOc1ccccc1CCC(=O)NS(C)(=O)=O [Example 19, N-Methanesulfonyl-3-(2-(3-(2-ethyl-4-(4-fluorophenyl)-5-hydroxyphenoxy)propoxy)phenyl)propionamide]	1.51
CCc1cc(-c2ccc(F)cc2)c(O)cc1OCCCOc1cccc(Oc2ccc(C(=O)O)cc2)c1CCC(=O)O [Example 25, 3-(2-(3-(2-Ethyl-4-(4-fluorophenyl)-5-hydroxyphenoxy)propoxy)-6-(4-carboxyphenoxy)phenyl)propionic acid]	0.138
CCc1cc(-c2ccc(F)cc2)c(O)cc1OCCCOc1ccccc1CC(C)(C)c1nnn[nH]1 [Example 28, 2-Methyl-2-(1H-tetrazol-5-yl)-3-(2-(3-(2-ethyl-4-(4-fluorophenyl)-5-hydroxyphenoxy)propoxy)phenyl)propane]	2.69
O=C(O)CCc1ccccc1OCCCOc1cc(O)c(-c2ccc(F)cc2)cc1Br [Example 30, 3-(2-(3-(2-Bromo-4-(4-fluorophenyl)-5-hydroxyphenoxy)propoxy)phenyl)propionic acid]	186
CCSc1cc(-c2ccc(F)cc2)c(O)cc1OCCCOc1ccccc1CCC(=O)O [Example 31, 3-(2-(3-(2-Ethylthio-4-(4-fluorophenyl)-5-hydroxyphenoxy)propoxy)phenyl)propionic acid]	81.3

The remaining lines, values ahead:

Ki [nM]	Compound
3.63	CCc1cc(-c2ccc(F)cc2)c(O)cc1OCC/C=C\c1ccccc1CCC(=O)O [9 (cis), 3-(2-(4-(2-Ethyl-4-(4-fluorophenyl)-5-hydroxyphenoxy)-(1-butenyl))phenyl)propionic acid]
8.32	CCc1cc(-c2ccc(F)cc2)c(O)cc1OCCCOc1cccc(OCCCCC(=O)N(C)C)c1CCC(=O)O [Example 3, 3-(2-(3-(2-Ethyl-4-(4-fluorophenyl)-5-hydroxyphenoxy)propoxy)-6-(4-dimethylaminocarbonylbutyloxy)phenyl)propionic acid]
3.63	CCc1cc(-c2ccc(F)cc2)c(O)cc1OCCCOc1ccccc1CCC(=O)O [Example 4, 3-(2-(3-(2-Ethyl-4-(4-fluorophenyl)-5-hydroxyphenoxy)propoxy)phenyl)propionic acid]
0.55	CCc1cc(-c2ccc(F)cc2)c(O)cc1OCCCOc1cccc(OCCCCC(=O)O)c1CCC(=O)O [Example 5, 3-(2-(3-(2-Ethyl-4-(4-fluorophenyl)-5-hydroxyphenoxy)propoxy)-6-(4-carboxybutyloxy)phenyl)propionic acid]
5.13	CCc1cc(-c2ccc(F)cc2)c(O)cc1OCCC=Cc1ccccc1CCC(=O)O [Example 9, 3-(2-(4-(2-Ethyl-4-(4-fluorophenyl)-5-hydroxyphenoxy)-(1-butenyl))phenyl)propionic acid]
8.91	CCc1cc(-c2ccc(F)cc2)c(O)cc1OCCCCc1ccccc1CCC(=O)O [Example 10, 3-(2-(4-(2-Ethyl-4-(4-fluorophenyl)-5-hydroxyphenoxy)butyl)phenyl)propionic acid]
0.977	CCc1cc(-c2ccc(F)cc2)c(O)cc1OCCCOc1cccc(O)c1CCC(=O)O [Example 13, 3-(2-(3-(2-Ethyl-4-(4-fluorophenyl)-5-hydroxyphenoxy)propoxy)-6-hydroxyphenyl)propionic acid]
5.89	CCc1cc(-c2ccc(F)cc2)c(O)cc1OCCCOc1cccc(OCCCCSC)c1CCC(=O)O [Example 15, 3-(2-(3-(2-Ethyl-4-(4-fluorophenyl)-5-hydroxyphenoxy)propoxy)-6-(4-methylthiobutyloxy)phenyl)propionic acid]
2.29	CCc1cc(-c2ccc(F)cc2)c(O)cc1OCCCOc1ccccc1CCC(=O)NS(=O)(=O)c1ccccc1 [Example 20, N-Phenylsulfonyl-3-(2-(3-(2-ethyl-4-(4-fluorophenyl)-5-hydroxyphenoxy)propoxy)phenyl)propionamide]
47.9	CCCCc1cc(-c2ccc(F)cc2)c(O)cc1OCCCOc1ccccc1CCC(=O)O [Example 21, 3-(2-(3-(2-Butyl-4-(4-fluorophenyl)-5-hydroxyphenoxy)propoxy)phenyl)propionic acid]
3.72	CCc1cc(-c2ccc(F)cc2)c(O)cc1OCCCCOc1ccccc1CCC(=O)O [Example 23, 3-(2-(4-(2-Ethyl-4-(4-fluorophenyl)-5-hydroxyphenoxy)butyloxy)phenyl)propionic acid]
13.8	CCc1cc(-c2ccc(F)cc2)c(O)cc1OCCCOc1cc(Oc2ccc(C(=O)O)cc2)ccc1CCC(=O)O [Example 26, 3-(2-(3-(2-Ethyl-4-(4-fluorophenyl)-5-hydroxyphenoxy)propoxy)-4-(4-carboxyphenoxy)phenyl)propionic acid]
2.29	CCc1cc(-c2ccc(F)cc2)c(O)cc1OCCCOc1ccccc1C(C)(C)CC(=O)O [Example 27, 3,3-Dimethyl-3-(2-(3-(2-ethyl-4-(4-fluorophenyl)-5-hydroxyphenoxy)propoxy)phenyl)propionic acid]
1.95	CCc1cc(-c2ccc(F)cc2)c(O)cc1OCCCOc1ccccc1C(O)C(C)(C)c1nnn[nH]1 (stereo not drawn) [Example 29, 2-Methyl-2-(1H-tetrazol-5-yl)-3-hydroxy-3-(2-(3-(2-ethyl-4-(4-fluorophenyl)-5-hydroxyphenoxy)propoxy)phenyl)propane]
